Experimental data: patent publication US20240197788A1, “PHARMACEUTICAL COMPOSITION FOR PREVENTING OR TREATING PARKINSON'S DISEASE, AND PREPARATION METHOD THEREOF” (INDUSTRY FOUNDATION OF CHONNAM NATIONAL UNIVERSITY, priority 2021, published 2024)

Columns and labels:
[1] = system: Triton X-100 insoluble alpha-synuclein (p-S129 α-syn, total α-syn); assay: Western blot of Triton X-100 insoluble alpha-synuclein in SH-SY5Y cells; format: cell-based, human; conditions: ROT-treated group, insoluble fraction
Protocol: (§1) SH-SY5Y cells were divided into a treated group treated with ROT (0.5 μM) for 24 hours and an untreated group, followed by culturing in DMSO solvent. Thereafter, the culture was removed, and the cells were divided into hBMSC-CM-treated group, NI-hBMSC-CM-treated group, hADSC-CM-treated group and NI-hADSC-CM-treated group in 50% diluted DMEM, followed by culturing each group in ROT (0.5 μM)-treated and untreated groups, respectively, for 24 hours. FBS was maintained at a concentration of 1% throughout the study. Phase contrast images were taken using an Olympus microscope (CKX41) equipped with a camera. Damaged and depleted suspended cells in the culture and adherent cells isolated by trypsinization were combined and a trypan blue cell counting method was applied. The number of surviving cells was counted using LUNA-II™ (Logos Biosystems, Gyeonggi-do, Republic of Korea) automatic cell counter. Cell count analysis was performed three times and expressed as a percentage (%) of the control.
After 48 hours of experiment, SH-SY5Y cells were lysed in cell lysis buffer containing a protease inhibitor and a phosphatase inhibitor together with the above-described 1% Triton X-100 for 30 minutes. […] The protein concentration was measured using a BCA protein assay kit. […] The same protein load was assessed by the expression level of GAPDH used as an internal control. […]

[2] = Rotenone toxicity, trypan blue cell counting of surviving cells; format: cell-based; conditions: human, SH-SY5Y neuroblastoma cells, 0.5 μM rotenone
Protocol: The human neuroblastoma cell line, that is, SH-SY5Y (RRID: CVCL 0019; ATCC® CRL-2266) was cultured in DMEM supplemented with 10% FBS and 1% penicillin-streptomycin (Welgene Inc., Gyeonsangbuk-do, Republic of Korea) at 37° C. under a wet condition of 5% CO2/95% air. The mixed culture (passages 15-22) was washed with phosphate-buffered saline (PBS), the cells were isolated with 0.25% trypsin-EDTA solution and then reseeded in DMEM containing 1% FBS at 5×10^4 cells/Ml. Then, after overnight incubation, it was used for experiments. ROT (Sigma R8875) stock was prepared at a concentration of 10 mM in […] (DMSO; Sigma D2650) solvent, stored at −80° C., and used within 6 months. Before starting each experiment, a serum-free DMEM culture was diluted to prepare a ROT stock working solution.
SH-SY5Y cells were divided into a treated group treated with ROT (0.5 μM) for 24 hours and an untreated group, followed by culturing in DMSO solvent. […] The number of surviving cells was counted using LUNA-II™ (Logos Biosystems, Gyeonggi-do, Republic of Korea) automatic cell counter. Cell count analysis was performed three times and expressed as a percentage (%) of the control.

[3] = system: procaspase-9, 3 and 7, PARP-1; assay: Western blot of caspase proteins and PARP-1 cleavage in SH-SY5Y cells; format: cell-based, human; conditions: rotenone alone; FIGS. 17A-17D, 18A-18D
Protocol: as §1, with “Damaged and depleted suspended cells in the culture and adherent cells isolated by trypsinization were combined and a trypan blue cell counting method was applied.” left out
(§2) After incubation for a total of 48 hours, the cells were scraped using a cell scraper, washed twice with PBS, and then exposed to a cell lysis buffer supplemented with protease inhibitor and phosphatase inhibitor (100 mM Tris-HCl (pH 7.6), 100 mM NaCl, 1% Nonidet P-40, 1% sodium deoxycholate, 0.1% sodium dodecyl sulfate (SDS) and 1% Triton X-100), followed by incubation on ice for 30 minutes. […] The protein concentration was measured using a BCA protein assay kit (Thermo Fisher Scientific, Waltham, MA, USA #23225) according to the manufacturer's instructions. […]

[4] = system: tyrosine hydroxylase (TH); assay: Western blot of tyrosine hydroxylase protein expression in SH-SY5Y cells; format: cell-based, human; conditions: 0.5 μM rotenone alone; FIGS. 3 and 4
Protocol: as §1, with “Damaged and depleted suspended cells in the culture and adherent cells isolated by trypsinization were combined and a trypan blue cell counting method was applied.” left out
as §2

[5] = system: NF—H, β3-tubulin, NeuN, SYP; assay: Western blot of neuron-specific proteins in SH-SY5Y cells; format: cell-based, human; conditions: rotenone treatment (0.5 μM, 48 hours); FIGS. 13A-13D, 14A-14D
Protocol: (§3) After incubation for a total of 48 hours, the cells were scraped using a cell scraper, washed twice with PBS, and then exposed to a cell lysis buffer supplemented with protease inhibitor and phosphatase inhibitor (100 mM Tris-HCl (pH 7.6), 100 mM NaCl, 1% Nonidet P-40, 1% sodium deoxycholate, 0.1% sodium dodecyl sulfate (SDS) and 1% Triton X-100), followed by incubation on ice for 30 minutes. The eluate was centrifuged at 13,200 rpm and at 4° C. for 15 minutes, and the supernatant was collected. The protein concentration was measured using a BCA protein assay kit (Thermo Fisher Scientific, Waltham, MA, USA #23225) according to the manufacturer's instructions.
Protein (15 μg) was separated on an 8-14% SDS-polyacrylamide gel and transferred to a nitrocellulose membrane (Millipore, Berlington, MA, USA, HATF00010), and the membrane was washed with PBS containing 0.5% (v/v) Tween 20 (PBS-T), followed by blocking with 5% (v/v) non-fat dry milk solution included in the preparation of PBS-T. Then, it was incubated overnight at 4° C. with the primary antibody. Thereafter, the cell membrane was exposed to a secondary antibody conjugated to horseradish peroxidase at room temperature (RT) for 2-3 hours, and washed three times with PBS-T. Signals were detected by an enhanced chemiluminescence (ECL) system (Millipore, WBLUR0500) using a LAS 4000 luminescent image analyzer (GE Healthcare, Japan). […]

[6] = system: BAX, Bcl-2 and Mcl-1; assay: Western blot of apoptosis-related proteins Bax, Bcl-2, Mcl-1 in SH-SY5Y cells; format: cell-based, human; conditions: rotenone alone
Protocol: as §1, §3
Protein (15 μg) was separated on an 8-14% SDS-polyacrylamide gel and transferred to a nitrocellulose membrane (Millipore, Berlington, MA, USA, HATF00010), and the membrane was washed with PBS containing 0.5% (v/v) Tween 20 (PBS-T), followed by blocking with 5% (v/v) non-fat dry milk solution included in the preparation of PBS-T. Then, it was incubated overnight at 4° C. with the primary antibody. […]

## C=C(C)[C@H]1Cc2c(ccc3c2O[C@@H]2COc4cc(OC)c(OC)cc4[C@@H]2C3=O)O1 [rotenone]
[1]
  phosphorylated S129 alpha-synuclein/total alpha-synuclein ratio with respect to dimers and monomers: significantly decreased
[2]
  viability at 48 h, 0.5 μM: 55%
[3]
  cleaved-PARP/pro-PARP ratio: greatly increased
  expression of procaspase-9, 3 and 7: greatly decreased
[4]
  protein expression of tyrosine hydroxylase: decreased
[5]
  expression of NF—H, β3-tubulin, NeuN and SYP: reduced
[6]
  Bax/Bcl-2 ratio: greatly increased
[6]; FIGS. 15A-15D, 16A-16D
  Bax expression: significantly increased
  expression of Bcl-2 and Mcl-1: significantly inhibited
